Measured values reported in ChEMBL document CHEMBL2010678, “Tigliane diterpene esters with IFN γ-inducing activity from the leaves of Aleurites fordii” (Bioorg Med Chem Lett, 2012).
Activity calls are given as the source filed them. The rule behind the calls is not given here.

Tests used:
Format in all cases: functional, cell-based
NK92 [1] = assay: Immunomodulatory activity in human NK92 cells assessed as induction of IFNgamma at 4 nM after 12 hrs by ELISA
NK92 [2] = assay: Immunomodulatory activity in human NK92 cells assessed as induction of IFNgamma after 12 hrs by ELISA
NK92 [3] = assay: Immunomodulatory activity in human NK92 cells assessed as induction of IFNgamma at 40 nM after 12 hrs by ELISA

| SMILES | Activity (NK92 [1]) | Activity (NK92 [2]) | other results |
| --- | --- | --- | --- |
| CCCCCCCCCCCCCCCC(=O)O[C@@H]1[C@@H](C)[C@@]2(O)[C@@H](C=C(CO)C[C@]3(O)C(=O)C(C)=C[C@@H]23)[C@H]2[C@]1(OC(C)=O)[C@@]2(C)CO | Active | – | – |
| CCCCCCCCCCCCCC(=O)O[C@@H]1[C@@H](C)[C@@]2(O)[C@@H](C=C(CO)C[C@]3(O)C(=O)C(C)=C[C@@H]23)[C@@H]2C(C)(C)[C@]12OC(C)=O | – | Active | – |
| CCCCCCCCCCCCCCCC(=O)O[C@@H]1[C@@H](C)[C@@]2(O)[C@@H](C(=O)C(CO)=C[C@]3(O)C(=O)C(C)=C[C@@H]23)[C@H]2[C@]1(OC(C)=O)[C@@]2(C)CO | – | – | Activity (NK92 [3]): Active |
| CCCCCCCCCCCCCCCC(=O)O[C@@H]1[C@@H](C)[C@]2(O)[C@@H]3C=C(C)C(=O)[C@@H]3CC(CO)=C[C@H]2[C@H]2[C@]1(OC(C)=O)[C@@]2(C)CO | – | inactive | – |
| CCCCCCCCCCCCCCCC(=O)O[C@@H]1[C@@H](C)[C@@]2(O)[C@@H](C(=O)C(CO)=C[C@]3(O)C(=O)C(C)=C[C@@H]23)[C@@H]2C(C)(C)[C@]12OC(C)=O | – | inactive | – |
| CCCCCCCCCCCCCCCC(=O)O[C@@H]1[C@@H](C)[C@@]2(O)[C@@H](C=C(CO)C[C@]3(O)C(=O)C(C)=C[C@@H]23)[C@@H]2C(C)(C)[C@]12OC(C)=O | Active | – | – |
